Measurements reported in patent US11357749B2, “Methods for treating neutropenia” (Enzychem Lifesciences Corporation, priority 2014, dated 2022).

Tests used:
[1] = stated as known; cited from earlier work
[2] = test system: neutrophils and lymphocytes; assay: Neutrophil and lymphocyte ratio in blood of LPS-treated Balb/C mice; type: in vivo; conditions: LPS 1 mg/kg i.p. + PLAG 5 mg/kg oral, % of total leukocytes
Description: To observe the ratio of neutrophil and lymphocyte in the blood of Balb/C mice, 1 mg/kg of lipopolysaccharide (LPS) is injected to mice, i.p. to induce inflammation. 5 mg/kg of PLAG is administered to the mice orally and blood samples are taken at 3 and 13 days after. In addition, for comparison, normal mice that are not treated with PLAG, receive PBS (phosphate buffered saline) and olive oil. The blood samples taken from the mice are treated with EDTA bottle 0.5 ml (Minocollect tube, Greiner bio-one, Austria) and the level of neutrophils (NEU) and lymphocytes (LYM) as a percentage of total leukocytes is measured using automated blood sample analyzer BC-6800 (Mindray, Shenzhen, China).

C3 = C3 mRNA (RT-PCR) in HepG2 cells; type: cell-based, human; conditions: 2 hours
Description: A liver cell line, HepG2 (American Type Culture Collection, ATCC, Rockville, Md.), is incubated and maintained at 37° C., 5% CO2 humid atmosphere in DMEM medium. When HepG2 cells, which are known to produce complement in culture, are treated with PLAG, the activity of complement is reduced effectively, as confirmed by RT-PCR of mRNA. In the RT-PCR, 5×10^5 number of HepG2 cells/ml are distributed into 12 well plates and induced C3 for 12 hours with 10% FCS. Then PLAG is added and further cultured for 2 hours. Cells are harvested and mRNA is isolated and RT-PCR is carried out with specific primer of C3; GAPDH is used as an internal control.

C4 = assay: Clinical study in healthy subjects: C4 in blood; type: in vivo, human
STAT1 = assay: IFN-γ induced STAT1 phosphorylation, western blot in U937 cells; type: cell-based; conditions: PLAG 0.01 to 10 μg/ml, 10 ng IFN-γ, 15 min
Description: Dephosphorylation of STAT6 is examined using anti-phosphorylated STAT6 in U937, A549, and Jurkat cell lysates treated with PLAG concentration from 0.01 to 10 μg/ml. Phosphorylation of STAT6 is induced by treatment with 10 ng/ml of IL-4. Dephosphorylation of STAT1 is examined in the U937 cell lysate treated with PLAG (0.01 to 10 μg/ml). Phosphorylation of STAT1 is induced by 10 ng of IFN-γ treatment. Dephosphorylation of STAT1 and STAT6 is examined at 15 min after stimulation with IFN-γ and IL-4 respectively, in the PLAG pretreated cells. […] The transcriptional activity of STAT6 is decreased by the dephosphorylation of STAT6. […] No effect of PLAG on STAT1 phosphorylation is observed.

neutrophils [3] = assay: Migration of neutrophils in LPS-injected mice (blood and lymph counts); type: in vivo
Description: Mice are injected with bacterial lipopolysaccharide (LPS) to provoke an inflammatory response, in the presence or absence of PLAG: […]

platelets = assay: Pilot study in pancreatic cancer patients receiving chemotherapy: platelets; type: in vivo, human; conditions: 16 patients, Gemcitabine and Erlotinib, PLAG 1,000 mg once per day orally, two cycles
Description: PLAG is administered to sixteen pancreatic cancer patients after chemotherapy. The subjects of this study are unoperable pancreatic cancer patients with ECOG (Eastern Cooperative Oncology Group) performance status of “0” or “1”, i.e. patients in good physical condition without much pain, able to enjoy almost normal lifestyle and thus, eligible for anticancer treatment for at least 2 months. The pancreatic cancer patients are “locally advanced” patients having tumor metastasis to the major vessels around pancreas or “Distant metastasis” patients with distant metastasis to liver, lung, bone, etc. ECOG performance status “0” refers to a patient who is asymptomatic, fully active, able to carry on all predisease activities without restriction with no pain and no problem for normal lifestyle, while “1” refers to a patient who is symptomatic but completely ambulatory with mile pain and a little problem for normal life. Anticancer (Gemcitabine and Erlotinib combo treatment) Regimen is as follows: 1,000 mg of Gemcitabine is injected once a week for three weeks (Day 1, Day 8, Day 15), and is not injected in the next one week (Day 22). Therefore, 1 cycle of anticancer treatment requires 1 month. 100 mg of Erlotinib (Tarceva) is administered once per day everyday orally. 1,000 mg of PLAG is also administered once per day orally, starting from 3 days before anticancer treatment until the last chemotherapy treatment. The PLAG treatment group and control group both completed two cycles of anticancer treatment. There is no difference among the control and PALG treatment groups in the amount or schedule of anticancer treatment.

Complement 3 = assay: Clinical study in healthy subjects: Complement 3 in blood; type: in vivo, human
Description: A clinical study is conducted in Gwandong University MyungJi Hospital Clinical Study Center in Republic of Korea with 27 healthy patients to study immune-modulating effect of PLAG. Volunteers are tested for 30 days in vivo as oral administer (500 mg of PLAG per day) under a legitimate clinical approval. Complement 3 is counted using C3 assay kit. The analysis result is shown in FIG. 7, and change of immunoactivity by the administration of PLAG in healthy subjects is shown in Table 8 (effect of PLAG supplementation on immune function of peripheral blood after 4-wk intervention). As shown in FIG. 7 and Table 8, the majority of those who consume PLAG for a month (twenty-six (26) subjects out of 27 patients) show decreased complement 3 (C3), while the control group, who are treated with soybean oil, show both increase and decrease of C3.

neutrophils [4] = assay: Chemotherapy-induced neutropenia mouse model (neutrophil count, survival); type: in vivo, mice
Description: The effect of PLAG for treatment of neutropenia and thrombocytopenia induced by chemotherapy (CIN) is evaluated in an animal model. Anti-cancer agents (Gemcitabine 50 mg/kg, Cyclosphosphamide 100 mg/kg, or Tamoxifen 50 mg/kg) are dosed daily for 3 weeks; PLAG is also administered 50 mg/kg daily for 3 weeks. After three weeks, neutrophils are harvested and counted with Auto Hematology Analyzer BC-5300.

[5] = healthy subjects n = 27, 500 mg PLAG per day oral, after 4-wk intervention
[6] = healthy subjects n = 27, before PLAG supplementation

CCCCC/C=C\C/C=C\CCCCCCCC(=O)OC(COC(C)=O)COC(=O)CCCCCCCCCCCCCCC (racemic) [PLAG, 1-palmitoyl-2-linoleoyl-3-acetylglycerol]
toxicity in GLP toxicity test [1]: no toxicity | Lymphocyte ratio [2]: 34.6 ± 7.0% | Neutrophil Ratio [2]: 53.2 ± 6.3% | C3 expression (RT-PCR) (C3; HepG2, 1 microgram/ml): somewhat | C3 expression (RT-PCR) (C3; HepG2, 10 microgram/ml): entirely | C4, After (C4; [5]): 20.8 ± 5.6 mg/dL | C4, Before (C4; [6]): 21.6 ± 6.6 mg/dL | STAT1 phosphorylation (STAT1): No effect | Neutrophil count in blood (neutrophils [3]; LPS + PLAG): 3.41 k/μl | Neutrophil count in lymph (neutrophils [3]; LPS + PLAG): 1.48 k/μl | migration of neutrophils to the lymph node (neutrophils [3]; LPS + PLAG vs LPS only): inhibits migration | patients whose platelet number dropped to less than 25,000 (platelets): no patient | patients with >50% decrease in platelet count (platelets): 43.8% | patients with >60% decrease in platelet count (platelets): 25% | patients with >70% decrease in platelet count (platelets): none | patients with anticancer treatment postponed or dose adjusted due to platelet number decrease to less than 50,000 (platelets): no patient | subjects showing decreased complement 3 (C3) (Complement 3; 500 mg PLAG per day oral for a month): 26 subjects out of 27 | decrease of average concentration of C3 in blood (Complement 3; after administration of PLAG 500 mg per day, 30 days): about 10 mg/dL | C3, After (Complement 3; [5]): 99.7 ± 12.4 mg/dL | C3, Before (Complement 3; [6]): 109.5 ± 13.0 mg/dL | reduced neutrophil count following chemotherapy (neutrophils [4]; Gemcitabine 50 mg/kg, Cyclosphosphamide 100 mg/kg or Tamoxifen 50 mg/kg daily, PLAG 50 mg/kg daily, 3 weeks): prevented | survival rate (neutrophils [4]; PLAG with Gemcitabine vs Gemcitabine alone): improved survival rate | activities and survival rate (neutrophils [4]; Tamoxifen 50 mg/kg co-treated with PLAG vs Tamoxifen only): faster improvement of activities and survival rate | neutrophil score (neutrophils [4]; mice treated with PLAG 50 mg/kg and Gemcitabine 50 mg/kg daily, 3 weeks): improved significantly | neutrophil count (neutrophils [4]; mice treated with PLAG 50 mg/kg and cyclophosphamide 100 mg/kg daily, 3 weeks, vs control group): improved significantly
